Assay results published in US10941114B2, “Small molecule lipid II inhibitors” (University Of Maryland, Baltimore, priority 2015, dated 2021).

How the values were obtained:
Staphylococcus aureus = test: Antibacterial activity assay (MIC, broth dilution); format: cell-based; settings: for MIC: Staphylococcus aureus, Table 21, read-out: Staphylococcus aureus MIC; for MIC SA USA300: Staphylococcus aureus USA 300 strain, broth microdilution
Enterococcus faecalis = test: Antibacterial activity assay (MIC, broth dilution); format: cell-based; settings: for MIC: Enterococcus faecalis, Table 21, read-out: Escherichia feacalis MIC; for MIC EF 15951: Enterococcus faecalis 15951, broth microdilution

## CN(CCC#N)c1ccc(/C=C/c2cc(-c3ccc(Br)cc3)cc(-c3ccc(Br)cc3)[o+]2)cc1.F[B-](F)(F)F
Staphylococcus aureus
  MIC: > 64 µg/mL
Enterococcus faecalis
  MIC: > 64 µg/mL

## CN(C)c1ccc(/C=C/c2cc(-c3ccc(F)c(F)c3)cc(-c3ccc(F)c(F)c3)[o+]2)cc1.F[B-](F)(F)F
Staphylococcus aureus
  MIC: > 64 µg/mL
Enterococcus faecalis
  MIC: > 64 µg/mL

## CN(CCC#N)c1ccc(/C=C/c2cc(-c3ccc(I)cc3)cc(-c3ccc(I)cc3)[o+]2)cc1.F[B-](F)(F)F
Staphylococcus aureus
  MIC: > 64 µg/mL
Enterococcus faecalis
  MIC: > 64 µg/mL

## CN(CCC#N)c1ccc(/C=C/c2cc(-c3ccc(C(F)(F)F)cc3)cc(-c3ccc(C(F)(F)F)cc3)[o+]2)cc1.F[B-](F)(F)F
Staphylococcus aureus
  MIC: > 64 µg/mL
Enterococcus faecalis
  MIC: > 64 µg/mL

## CN(CCC#N)c1ccc(/C=C/c2cc(-c3ccc(F)c(F)c3)cc(-c3ccc(F)c(F)c3)[o+]2)cc1.F[B-](F)(F)F
Staphylococcus aureus
  MIC: > 64 µg/mL
Enterococcus faecalis
  MIC: > 64 µg/mL

## CCN(CC)c1ccc(/C=C/c2cc(-c3ccc(F)cc3)cc(-c3ccc(F)cc3)[o+]2)c(O)c1.F[B-](F)(F)F
Staphylococcus aureus
  MIC: 64 µg/mL
Enterococcus faecalis
  MIC: > 64 µg/mL

## CCN(CCC#N)c1ccc(/C=C/c2cc(-c3ccc(Br)cc3)cc(-c3ccc(Br)cc3)[o+]2)c(C)c1.F[B-](F)(F)F
Staphylococcus aureus
  MIC: > 64 µg/mL
Enterococcus faecalis
  MIC: > 64 µg/mL

## CCN(CCC#N)c1ccc(/C=C/c2cc(-c3ccc(F)cc3)cc(-c3ccc(F)cc3)[o+]2)c(C)c1.F[B-](F)(F)F
Staphylococcus aureus
  MIC: > 64 µg/mL
Enterococcus faecalis
  MIC: > 64 µg/mL

## CCCN1CCCc2cc(/C=C/c3cc(-c4ccc(Br)cc4)cc(-c4ccc(Br)cc4)[o+]3)ccc21.F[B-](F)(F)F
Staphylococcus aureus
  MIC: > 64 µg/mL
Enterococcus faecalis
  MIC: > 64 µg/mL

## CCCN1CCCc2cc(/C=C/c3cc(-c4ccc(F)cc4)cc(-c4ccc(F)cc4)[o+]3)ccc21.F[B-](F)(F)F
Staphylococcus aureus
  MIC: > 64 µg/mL
Enterococcus faecalis
  MIC: > 64 µg/mL

## CN(C)c1ccc(/C=C/c2cc(-c3ccc(F)cc3)cc(-c3ccc(F)cc3)[n+]2C)cc1.[I-] [Compound 2jc39-1, (E)-2-(4-(dimethylamino)styryl)-4,6-bis(4-fluorophenyl)-1-methylpyridin-1-ium iodide salt]
Staphylococcus aureus
  MIC SA USA300: 4 µg/mL
Enterococcus faecalis
  MIC EF 15951: 4 µg/mL

## CN(CCC#N)c1ccc(/C=C/c2cc(-c3ccc(F)cc3)cc(-c3ccc(F)cc3)[n+]2C)cc1.[I-] [Compound 2jc39-2, (E)-2-(4-((2-cyanoethyl)(methyl)amino)styryl)-4,6-bis(4-fluorophenyl)-1-methylpyridin-1-ium iodide salt]
Staphylococcus aureus
  MIC SA USA300: 16 µg/mL
Enterococcus faecalis
  MIC EF 15951: 16 µg/mL

## CN(C)c1ccc(/C=C/c2cc(-c3ccc(F)cc3)cc(-c3ccc(Br)cc3)[n+]2C)cc1.[I-] [Compound 2jc39-3, (E)-2-(4-bromophenyl)-6-(4-(dimethylamino)styryl)-4-(4-fluorophenyl)-1-methylpyridin-1-ium iodide salt]
Staphylococcus aureus
  MIC SA USA300: 4 µg/mL
Enterococcus faecalis
  MIC EF 15951: 4 µg/mL

## CN(CCC#N)c1ccc(/C=C/c2cc(-c3ccc(F)cc3)cc(-c3ccc(Br)cc3)[n+]2C)cc1.[I-] [Compound 2jc39-4]
Staphylococcus aureus
  MIC SA USA300: 16 µg/mL
Enterococcus faecalis
  MIC EF 15951: 16 µg/mL

## CN(C)c1ccc(/C=C/c2cc(-c3ccc(Cl)cc3)cc(-c3ccc(F)cc3)[n+]2C)cc1.[I-] [Compound 2jc43-1, (E)-4-(4-chlorophenyl)-2-(4-(dimethylamino)styryl)-6-(4-fluorophenyl)-1-methylpyridin-1-ium iodide salt]
Staphylococcus aureus
  MIC SA USA300: 4 µg/mL
Enterococcus faecalis
  MIC EF 15951: 2 µg/mL

## CN(CCC#N)c1ccc(/C=C/c2cc(-c3ccc(Cl)cc3)cc(-c3ccc(F)cc3)[n+]2C)cc1.[I-] [Compound 2jc43-2, (E)-4-(4-chlorophenyl)-2-(4-((2-cyanoethyl)(methyl)amino)styryl)-6-(4-fluorophenyl)-1-methylpyridin-1-ium iodide salt]
Staphylococcus aureus
  MIC SA USA300: 2 µg/mL
Enterococcus faecalis
  MIC EF 15951: 2 µg/mL

## CN(C)c1ccc(/C=C/c2cc(-c3ccc(Cl)cc3)cc(-c3ccc(Br)cc3)[n+]2C)cc1.[I-] [Compound 2jc43-3, (E)-2-(4-bromophenyl)-4-(4-chlorophenyl)-6-(4-(dimethylamino)styryl)-1-methylpyridin-1-ium iodide salt]
Staphylococcus aureus
  MIC SA USA300: 2 µg/mL
Enterococcus faecalis
  MIC EF 15951: 2 µg/mL

## CN(CCC#N)c1ccc(/C=C/c2cc(-c3ccc(Cl)cc3)cc(-c3ccc(Br)cc3)[n+]2C)cc1.[I-] [Compound 2jc43-4, (E)-2-(4-bromophenyl)-4-(4-chlorophenyl)-6-(4-((2-cyanoethyl)(methyl)amino)styryl)-1-methylpyridin-1-ium iodide salt]
Staphylococcus aureus
  MIC SA USA300: 32 µg/mL
Enterococcus faecalis
  MIC EF 15951: 16 µg/mL

## CN(C)c1ccc(/C=C/c2cc(-c3ccc(N(C)C)cc3)cc(-c3ccc(F)cc3)[n+]2C)cc1.[I-] [Compound 3jc01-1, (E)-4-(4-(dimethylamino)phenyl)-2-(4-(dimethylamino)styryl)-6-(4-fluorophenyl)-1-methylpyridin-1-ium iodide salt]
Staphylococcus aureus
  MIC SA USA300: 2 µg/mL
Enterococcus faecalis
  MIC EF 15951: 1 µg/mL

## CN(C)c1ccc(-c2cc(/C=C/c3ccc(N(C)CCC#N)cc3)[n+](C)c(-c3ccc(F)cc3)c2)cc1.[I-] [Compound 3jc01-2, (E)-2-(4-((2-cyanoethyl)(methyl)amino)styryl)-4-(4-(dimethylamino)phenyl)-6-(4-fluorophenyl)-1-methylpyridin-1-ium iodide salt]
Staphylococcus aureus
  MIC SA USA300: 32 µg/mL
Enterococcus faecalis
  MIC EF 15951: 16 µg/mL

## CN(C)c1ccc(/C=C/c2cc(-c3ccc(N(C)C)cc3)cc(-c3ccc(Br)cc3)[n+]2C)cc1.[I-] [Compound 3jc01-3, (E)-2-(4-bromophenyl)-4-(4-(dimethylamino)phenyl)-6-(4-(dimethylamino)styryl)-1-methylpyridin-1-ium iodide salt]
Staphylococcus aureus
  MIC SA USA300: 1 µg/mL
Enterococcus faecalis
  MIC EF 15951: 1 µg/mL

## CN(C)c1ccc(-c2cc(/C=C/c3ccc(N(C)CCC#N)cc3)[n+](C)c(-c3ccc(Br)cc3)c2)cc1.[I-] [Compound 3jc01-4, (E)-2-(4-bromophenyl)-6-(4-((2-cyanoethyl)(methyl)amino)styryl)-4-(4-(dimethylamino)phenyl)-1-methylpyridin-1-ium iodide salt]
Staphylococcus aureus
  MIC SA USA300: 32 µg/mL
Enterococcus faecalis
  MIC EF 15951: 32 µg/mL

## CN(CCC#N)c1ccc(/C=C/c2cc(-c3ccc(N(C)CCC#N)cc3)cc(-c3ccc(F)cc3)[n+]2C)cc1.[I-] [Compound 3jc01-6, (E)-4-(4-((2-cyanoethyl)(methyl)amino)phenyl)-2-(4-((2-cyanoethyl)(methyl)amino)styryl)-6-(4-fluorophenyl)-1-methylpyridin-1-ium iodide salt]
Staphylococcus aureus
  MIC SA USA300: 1 µg/mL
Enterococcus faecalis
  MIC EF 15951: 8 µg/mL

## CN(C)c1ccc(/C=C/c2cc(-c3ccc(N(C)CCC#N)cc3)cc(-c3ccc(Br)cc3)[n+]2C)cc1.[I-] [Compound 3jc01-7]
Staphylococcus aureus
  MIC SA USA300: 1 µg/mL
Enterococcus faecalis
  MIC EF 15951: 2 µg/mL

## CN(CCC#N)c1ccc(/C=C/c2cc(-c3ccc(N(C)CCC#N)cc3)cc(-c3ccc(Br)cc3)[n+]2C)cc1.[I-] [Compound 3jc01-8]
Staphylococcus aureus
  MIC SA USA300: 1 µg/mL
Enterococcus faecalis
  MIC EF 15951: 2 µg/mL

## CN(CCC#N)c1ccc(/C=C/c2cc(-c3ccc(F)cc3)cc(-c3ccc(F)cc3)[o+]2)cc1.F[B-](F)(F)F [drawing 385]
Staphylococcus aureus
  MIC: > 64 µg/mL
Enterococcus faecalis
  MIC: > 64 µg/mL

## (E)-4-(4-((2-cyanoethyl)(methyl)amino)phenyl)-2-(4-(dimethylamino)styryl)-6-(4-fluorophenyl)-1-methylpyridin-1-ium iodide salt [Compound 3jc01-5]
Staphylococcus aureus
  MIC SA USA300: 1 µg/mL
Enterococcus faecalis
  MIC EF 15951: 4 µg/mL
